Data published in article PMC8802628, “Selective activation of PFKL suppresses the phagocytic oxidative burst” (Cell, 2021).

Legend:
[1] = test system: IL-1β; assay: GSDMD-dependent IL-1β release from monocytes; format: cell-based, human; details: nigericin or poly(dA-dT)
Protocol: Primary human monocytes were primed with 1 μg/mL ultrapure LPS and 1μg/mL Pam3CSK4 for 3 h. THP-1 cells were primed with 1 μg/mL Pam3CSK4 for 4 h. Primed cells (1 × 10^5) were treated for 1 h with DMSO vehicle, 5 μM LDC7559 (unless indicated otherwise), 10 μM MCC950, or 50 μM VX765, and then for 1 h with 10 μg/mL nigericin, or 25 μg/mL LPS (electroporated using the NEON electroporation system; ThermoFisher Scientific), or they were transfected over 3 h with 1 μg/mL poly(dA-dT) using lipofectamine 2000 (0.5 μL/well).
LDH released into the culture medium was measured 1-3 h post-activation using a CellTox Green Cytotoxicity assay (Promega). IL-1β secretion was measured using a MSD Cytokine Assay, 96-well multi-array Tissue Culture Kit (Meso Scale Discovery). For immunoblotting, monocytes (2 × 10^6) were treated with 10-50 μM LCD7559 or 50 μM VX765 and electroporated with 25 μg/mL LPS using the NEON electroporation system. Cells were lysed after 1 h using lysis buffer (50 mM Tris pH 7.4, 150 mM NaCl, 10% glycerol, 1% NP-40, 1 mM MgCl and 1X Roche cOmplete protease inhibitor cocktail) and protein concentration was determined via BCA protein assay (Peirce). Antibodies for immunoblotting were GSDMD (L60, Cell Signaling Technologies), cleaved GSDMD-Asp275 (E7H9G, Cell Signaling Technologies) and GAPDH (14C10, Cell Signaling Technologies).

[2] = target: T1, recombinant NAMPT (Homo sapiens, UniProt P43490); assay: NAMPT activity assay; format: biochemical; details: 500 nM to 160 pM
T1 construct: purchased BPS Bioscience 71276-1
T1 sequence (P43490 whole entry, species assumed): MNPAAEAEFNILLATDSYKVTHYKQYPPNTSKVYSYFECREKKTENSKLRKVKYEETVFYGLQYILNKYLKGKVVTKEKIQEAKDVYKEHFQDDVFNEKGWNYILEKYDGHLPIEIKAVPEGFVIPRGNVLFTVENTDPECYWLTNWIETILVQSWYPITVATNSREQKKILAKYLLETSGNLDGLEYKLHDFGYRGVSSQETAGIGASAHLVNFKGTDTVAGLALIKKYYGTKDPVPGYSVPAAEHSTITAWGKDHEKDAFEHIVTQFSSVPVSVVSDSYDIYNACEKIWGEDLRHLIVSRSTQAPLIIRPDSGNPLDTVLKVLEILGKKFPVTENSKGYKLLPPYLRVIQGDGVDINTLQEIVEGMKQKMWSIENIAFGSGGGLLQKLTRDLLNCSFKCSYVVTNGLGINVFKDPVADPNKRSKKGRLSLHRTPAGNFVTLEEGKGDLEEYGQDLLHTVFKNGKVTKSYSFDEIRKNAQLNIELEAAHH
Protocol: NA-11 was diluted in ultra-pure water at concentrations between 500 nM to 160 pM, and preincubated with recombinant NAMPT for 30 min. NAMPT activity was measured using a fluorescence NAMPT Inhibitor Screening assay kit (BPS Bioscience).

[3] = target: T2, PFKL (Homo sapiens, UniProt P17858); assay: Thermal proteome profiling (TPP) of neutrophil lysates; format: binding; details: 10 μM NA-11, 37°C to 65°C
T2 construct: endogenous in cells; host or cells: THP-1 cell lysate
T2 sequence (P17858 2-780 limits assumed): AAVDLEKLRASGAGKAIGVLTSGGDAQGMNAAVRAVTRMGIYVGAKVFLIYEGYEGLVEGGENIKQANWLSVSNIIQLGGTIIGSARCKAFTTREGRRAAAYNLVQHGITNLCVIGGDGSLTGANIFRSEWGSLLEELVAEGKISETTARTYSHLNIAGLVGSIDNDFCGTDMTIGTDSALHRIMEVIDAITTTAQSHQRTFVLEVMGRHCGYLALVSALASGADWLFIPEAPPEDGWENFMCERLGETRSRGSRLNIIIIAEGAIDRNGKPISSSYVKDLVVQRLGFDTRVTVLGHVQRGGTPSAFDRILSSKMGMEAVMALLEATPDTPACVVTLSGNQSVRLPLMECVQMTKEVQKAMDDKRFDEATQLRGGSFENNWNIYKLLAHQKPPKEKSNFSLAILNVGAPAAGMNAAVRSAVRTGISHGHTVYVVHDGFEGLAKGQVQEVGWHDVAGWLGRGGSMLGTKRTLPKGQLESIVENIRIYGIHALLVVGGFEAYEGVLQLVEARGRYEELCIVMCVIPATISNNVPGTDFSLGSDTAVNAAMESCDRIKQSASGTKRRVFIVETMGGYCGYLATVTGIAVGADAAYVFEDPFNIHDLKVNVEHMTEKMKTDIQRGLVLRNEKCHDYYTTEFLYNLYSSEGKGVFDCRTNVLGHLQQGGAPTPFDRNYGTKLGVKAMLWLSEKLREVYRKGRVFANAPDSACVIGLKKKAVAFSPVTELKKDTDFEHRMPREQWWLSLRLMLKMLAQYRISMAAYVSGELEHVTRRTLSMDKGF
Protocol: Neutrophils (3 × 10^7) were treated with 50 nM PMA for 20 min. Cell were washed twice in D-PBS, resuspended in KB buffer (25 mM Tris-HCL pH 7.5, 1 mM DTT, 10 mM MgCl2) and frozen in liquid nitrogen. Lysates were prepared by 5-7 freeze-thaw cycles in KB buffer. Protein concentration was determined via Bradford assay and lysates were incubated on ice for 30 min with either 10 μM NA-11 or DMSO vehicle. Samples were analyzed in two formats: (1) classical thermal proteome profiling (TPP) with full melting curves using 16-plex TMT labeling (8 temperatures between 37-65°C), and (2) Proteome Integral Solubility Alteration (PISA) assay with aggregated protein abundance from a defined temperature range using 10-plex TMT labeling (Five replicates 44-58°C). […]
For the classical TPP, quantitative data from each temperature were used to generate a thermal titration curve and calculate a melting point. PSM level quantitation was log2 transformed and summarized to protein level by aggregating all PSMs from the same primary Uniprot reference, and systematic variation between the treatments was normalized at each temperature. […] A quality score is calculated for each protein by evaluating R squares, curve slopes and similarity in slopes between the two fitted curves. […] Fold changes and p values were calculated between pre-defined treatment groups by the MSstats package. […]

Compound	GSDMD-dependent release of IL-1β [1]	activity of recombinant NAMPT [2]	thermal shift in melting temperature (Tm) of PFKL [3] [°C]
COc1ccccc1-c1cc2n(n1)Cc1ccc(NC(C)=O)cc1OC2 [LDC7559, reference compound]	occurred normally		
CC(=O)Nc1ccc2c(c1)OCc1cc(-c3ccccc3C#CCCCO)nn1C2 [NA-11]		did not affect the activity of recombinant NAMPT	4
